Data reported in patent US8324151B2, “Treatment of sepsis and septic shock using ghrelin and growth hormone” (The Feinstein Institute for Medical Research, priority 2007, dated 2012).
Ends that are not written are not given here. * marks the point of attachment. Octanoyl = CCCCCCCC(=O)*

How the values were obtained:
[1] = system: 24-month-old (aged) rats with LPS injection; experiment: LPS-induced endotoxemia in aged rats treated with GH with or without ghrelin; format: in vivo, rat; settings: 4 h after LPS 15 mg/kg BW, ghrelin 20 nmol/kg BW and/or GH 25 μg/kg BW bolus 30 min prior to LPS
Protocol: To determine whether GH sensitizes Ghrelin's anti-inflammatory effects, GH was administered (25 μg/kg BW, a bolus at 30 min prior to LPS injection) with or without ghrelin (20 nmol/kg BW, a bolus at 30 min prior to LPS injection) in 24-month-old (aged) rats with LPS injection (15 mg/kg BW). […] Similarly, organ injury indicators such as AST and ALT were attenuated only following co-administration of ghrelin and GH after LPS injection in aged animals (FIG. 9C-D).

brain ghrelin receptor = experiment: Effect of GH on central ghrelin receptor expression and parasympathetic neuronal activity; format: in vivo; settings: no data given
[2] = system: rats exposed to whole body irradiation followed by CLP; experiment: Radiation combined injury (RCI): 5-Gy whole body irradiation followed by CLP; format: in vivo, rat
Protocol: Rats were exposed to 5-Gy whole body irradiation followed by cecal ligation and puncture (CLP) 48 h thereafter. Human ghrelin (30 nmol) or vehicle (saline) was infused for 68 h after radiation exposure. At 20 h post-CLP, circulating tissue injury markers were measured. A 10-day survival study was also performed.

[3] = system: male 3-month-old (young) rats subjected to sepsis by CLP; format: in vivo
Protocol: Protective effects of ghrelin in young septic animals: This study was designed to determine whether ghrelin by itself can attenuate sepsis-induced inflammatory responses, cardiovascular responses, tissue injury, and mortality in young animals. To study this, male 3-month-old (young) rats were subjected to sepsis by CLP. At 5 h after CLP, a bolus IV injection of ghrelin (6 nmol/kg BW) was followed by a continuous infusion of ghrelin (40 nmol/kg BW) via a primed 200-μl Alzet mini-pump for 15 h. 20 h after CLP (i.e., severe sepsis), plasma levels of TNF-α, IL-6, and HMGB-1 were determined. Cardiac output (CO), stoke volume (SV), total peripheral resistance (TPR), and organ blood flow (BF) were measured using radioactive microspheres. Moreover, tissue injury indicators such as plasma levels of lactate and creatinine, as well as lung water content (edema) were determined. In additional groups of animals, the necrotic cecum was excised at 20 h after CLP, and a 10-day survival was recorded. […] Thus, ghrelin may provide a novel approach for anti-sepsis therapy in the young population. […] This also confirms that ghrelin can cross the blood-brain barrier to produce its beneficial effect centrally, thus reducing proinflammatory cytokines in sepsis. […] Plasma levels of TNF-α were measured at 1 h after LPS injection. […] However, due to the presence of central ghrelin hyporesponsiveness in aged animals, it is most likely that treatment with ghrelin alone will not produce desirable beneficial results in the geriatric population.

[4] = system: male 3-month-old (young) rats subjected to sepsis by CLP; settings: sepsis in young animals; Wu et al., 2004; cited from earlier work
[5] = system: young rats with LPS injection; experiment: ICV administration of ghrelin prior to IV LPS injection (endotoxemia); settings: ghrelin 3 nmol/kg BW ICV 30 min prior to IV LPS 15 mg/kg BW; 1 h after LPS
[6] = 20 h after CLP, ghrelin 6 nmol/kg BW IV bolus at 5 h + 40 nmol/kg BW infusion for 15 h
[7] = 20 h after CLP, radioactive microspheres
[8] = plasma, 20 h post-CLP, human ghrelin 30 nmol infused for 68 h after radiation, Mean ± SE, n = 4-6/group

## GH: Growth hormone; a ghrelin-sensitizing agent; preferred human forms SEQ ID NO:2-4
[1]
  plasma levels of IL-6: neither ghrelin nor GH alone significantly decreased
  plasma levels of TNF-α: neither ghrelin nor GH alone significantly decreased
Brain ghrelin receptor; aged animals (heading of b67)
  brain ghrelin receptor expression: increases
Brain ghrelin receptor
  parasympathetic neuronal activity: increases

## Human ghrelin: Human ghrelin; preferably GSSFLSPEHQRVQQRKESKKPPAKLQPR, S at position 3 n-octanoylated serine (SEQ ID NO:1) (GSS(Octanoyl)FLSPEHQRVQQRKESKKPPAKLQPR; listed as Homo sapiens)
[2]; 10-day survival after RCI, vehicle 38%
  survival: 69%
[2]; vs. RCI + vehicle, 20 h post-CLP
  decrease of the elevated injury markers in plasma: 41-59%

## ghrelin: Endogenous ligand for the growth hormone secretagogue receptor; species form used in the LPS and CLP studies not stated (GSSFLSPEHQRVQQRKESKKPPAKLQPR; ends and bridges not checked; UniProt Q9UBU3 24-51, looked up)
[1]
  plasma levels of IL-6: neither ghrelin nor GH alone significantly decreased
  plasma levels of TNF-α: neither ghrelin nor GH alone significantly decreased
[3]; 10-day survival, necrotic cecum excised at 20 h after CLP, control 35%, n=20/group
  survival of septic animals: 65%
[3]; 20 h after CLP
  lung edema (lung water content): decreased
  plasma creatinine: decreased
  plasma lactate: decreased
[3]; 20 h after CLP, data not shown
  cytokine levels in peritoneal fluid: markedly reduced
[3]; [6]
  plasma levels of HMGB-1: significantly reduced
  plasma levels of IL-6: significantly reduced
  plasma levels of TNF-α: significantly reduced
[3]; [7]
  cardiac output (CO): increased
  organ blood flow in the gut: increased
  organ blood flow in the kidneys: increased
  organ blood flow in the liver: increased
  stroke volume (SV): increased
  total peripheral resistance (TPR): reduced
[3]; rat, in vivo, iv
  brain ghrelin levels: restored the reduced brain ghrelin levels
[2]; 20 h post-CLP, human ghrelin 30 nmol infused for 68 h after radiation, Mean ± SE, n = 4-6/group
  Gut MPO: 14.0 ± 1.1 μU/mg
[2]; [8]
  ALT: 42.3 ± 5.4 IU/L
  AST: 70.7 ± 70.3 IU/L
  Creatinine: 1.60 ± 0.20 mg/dL
  IL-6: 817 ± 88 pg/mL
  LDH: 1098 ± 88 U/L
  Lactate: 19.4 ± 0.8 mg/dL
  TNF-α: 41.8 ± 8.5 pg/mL
[4]
  circulating proinflammatory cytokines such as TNF-α and IL-6: significantly decreases
[5]
  reduction of serum levels of TNF-α: 65%
